This passage reports Ki results from patent US9611277B2 (Janssen Pharmaceutica NV, priority 2013, dated 2017).

The Ki is a measure of affinity in units of concentration, obtained from inhibition or displacement.

One experiment addresses rat orexin 1 receptor (Rattus norvegicus, UniProt P56718). In words: Rat orexin 1 receptor radioligand binding. The note with it: rat orexin 1 receptor; averages of 2-20 runs; read-out: rOX1 Ki. The method in brief: (§1)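 Competition binding with the tritiated thiazolyl-pyrrolidinyl-methanone radioligand in PBS on homogenized rat or human OX1R-expressing cell suspensions, ≤0.1% DMSO; nonspecific binding defined with 10 μM almorexant. Bound radioactivity read by scintillation after filtration; IC50 from one-site competition fit, converted to Ki using pre-determined radioligand Kd.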

The target in the next experiment is human orexin 1 receptor (Homo sapiens, UniProt O43613). In words: Human orexin 1 receptor radioligand binding. The note with it: human orexin 1 receptor; averages of 2-20 runs; read-out: hOX1 Ki. Summed up: as §1
The next experiment deals with human orexin 2 receptor (Homo sapiens (Human), UniProt O43614). As to the kind of experiment: Human orexin 2 receptor radioligand binding. The note with it: human orexin 2 receptor; averages of 2-20 runs; read-out: hOX2 Ki. The method in brief:
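HEK293 cells stably expressing human OX2 receptor, homogenized, incubated with [3H]-EMPA and compounds (DMSO ≤0.1%); nonspecific binding with 10 μM almorexant. Filter-bound radioactivity counted by scintillation; IC50 from one-site competition fit of triplicates, Ki from IC50 and predetermined radioligand Kd, averaged over 2-20 runs.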

Each structure is given as a SMILES string.

Chain of human orexin 2 receptor (O43614 whole entry): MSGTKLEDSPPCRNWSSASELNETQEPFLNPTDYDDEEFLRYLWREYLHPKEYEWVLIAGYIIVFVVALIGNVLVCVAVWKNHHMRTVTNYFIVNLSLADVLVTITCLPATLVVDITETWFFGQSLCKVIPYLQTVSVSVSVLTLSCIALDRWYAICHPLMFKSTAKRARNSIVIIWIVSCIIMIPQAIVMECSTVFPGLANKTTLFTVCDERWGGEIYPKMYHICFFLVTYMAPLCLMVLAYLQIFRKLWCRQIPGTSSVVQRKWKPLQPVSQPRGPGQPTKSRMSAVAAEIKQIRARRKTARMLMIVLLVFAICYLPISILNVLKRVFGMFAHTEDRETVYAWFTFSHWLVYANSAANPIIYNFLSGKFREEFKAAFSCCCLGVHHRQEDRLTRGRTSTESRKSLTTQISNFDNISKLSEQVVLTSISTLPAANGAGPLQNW

As to `O=C(c1cc(F)ccc1-n1nccn1)N1C[C@H]2C[C@@H](Oc3cnc(C(F)(F)F)cn3)[C@@H]1C2` [Example 124, (5-fluoro-2-(2H-1,2,3-triazol-2-yl)phenyl)((1S,4R,6R)-6-((5-(trifluoromethyl)pyrazin-2-yl)oxy)-2-azabicyclo[2.2.1]heptan-2-yl)methanone], the values for the Ki on rat orexin 1 receptor, on human orexin 1 receptor and on human orexin 2 receptor were 0.2 µM, 0.109 µM and 4.5 µM, respectively.
For `Cc1cnc(N[C@@H]2C[C@H]3C[C@@H]2N(C(=O)c2ccccc2-c2ncccn2)C3)cn1` [Example 220, ((1S,4S,6R)-6-((5-methylpyrazin-2-yl)amino)-2-azabicyclo[2.2.1]heptan-2-yl)(2-(pyrimidin-2-yl)phenyl)methanone] the same measures were 0.011 µM, 0.017 µM and 0.284 µM.
Taken in the same sequence, the figures for `Cc1cnc(C(=O)N2C[C@@H]3CC[C@H]2[C@H](Oc2ncc(C(F)(F)F)cc2F)C3)c(-c2ncccn2)c1` [Example 283, ((1S,4R,6R)-6-((3-fluoro-5-(trifluoromethyl)pyridin-2-yl)oxy)-2-azabicyclo[2.2.2]octan-2-yl)(5-methyl-3-(pyrimidin-2-yl)pyridin-2-yl)methanone] were 0.021 µM, 0.027 µM and over 10 µM.
For `O=C(c1ccccc1-n1nccn1)N1C[C@@H]2CC[C@H]1[C@H](Oc1ccc(Cl)cn1)C2` [Example 270, (2-(2H-1,2,3-triazol-2-yl)phenyl)((1S,4R,6R)-6-((5-chloropyridin-2-yl)oxy)-2-azabicyclo[2.2.2]octan-2-yl)methanone] the same measures were 0.004 µM, 0.003 µM and 0.2 µM.
Consider `Cc1cnc(C(=O)N2C[C@@H]3CC[C@H]2[C@H](Oc2cnc(C(F)(F)F)cn2)C3)c(-c2ncccn2)c1` [Example 282, (5-methyl-3-(pyrimidin-2-yl)pyridin-2-yl)((1S,4R,6R)-6-((5-(trifluoromethyl)pyrazin-2-yl)oxy)-2-azabicyclo[2.2.2]octan-2-yl)methanone], for which the Ki at rat orexin 1 receptor was 0.081 µM; at human orexin 1 receptor it was 0.065 µM; at human orexin 2 receptor it was over 10 µM.
For `O=C(c1ccccc1-c1ncccn1)N1C[C@H]2C[C@@H](Oc3ncc(C(F)(F)F)cc3F)[C@@H]1C2` [Example 99, ((1S,4R,6R)-6-((3-fluoro-5-(trifluoromethyl)pyridin-2-yl)oxy)-2-azabicyclo[2.2.1]heptan-2-yl)(2-(pyrimidin-2-yl)phenyl)methanone] the same measures were 0.011 µM, 0.01 µM and 0.725 µM.
Turning to `Cc1noc(-c2cc(F)ccc2C(=O)N2C[C@H]3C[C@@H](Oc4ccc(C(F)(F)F)cn4)[C@@H]2C3)n1` [Example 291, (4-fluoro-2-(3-methyl-1,2,4-oxadiazol-5-yl)phenyl)((1S,4R,6R)-6-((5-(trifluoromethyl)pyridin-2-yl)oxy)-2-azabicyclo[2.2.1]heptan-2-yl)methanone], the results for the Ki at rat orexin 1 receptor, on human orexin 1 receptor and on human orexin 2 receptor were 0.043 µM, 0.082 µM and 4.2 µM, respectively.
For `O=C(c1ccccc1-c1ncccn1)N1C[C@H]2C[C@@H](Nc3ccc(C(F)(F)F)cn3)[C@@H]1C2` [Example 148, (2-(pyrimidin-2-yl)phenyl)((1S,4S,6R)-6-((5-(trifluoromethyl)pyridin-2-yl)amino)-2-azabicyclo[2.2.1]heptan-2-yl)methanone] the same measures were 0.003 µM, 0.005 µM and 0.189 µM.
For `O=C(c1ccccc1-n1nccn1)N1C[C@H]2C[C@@H](Nc3ccc(C(F)(F)F)nc3)[C@@H]1C2` [Example 246, (2-(2H-1,2,3-triazol-2-yl)phenyl)((1S,4S,6R)-6-((6-(trifluoromethyl)pyridin-3-yl)amino)-2-azabicyclo[2.2.1]heptan-2-yl)methanone] the same measures were 0.194 µM, 0.155 µM and 0.843 µM.
For `O=C(c1cccc(F)c1-c1ncc(F)cn1)N1C[C@H]2C[C@@H](Oc3ccc(C(F)(F)F)cn3)[C@@H]1C2` [Example 90, (3-fluoro-2-(5-fluoropyrimidin-2-yl)phenyl)((1S,4R,6R)-6-((5-(trifluoromethyl)pyridin-2-yl)oxy)-2-azabicyclo[2.2.1]heptan-2-yl)methanone], the Ki at rat orexin 1 receptor amounted to 0.015 µM; on human orexin 1 receptor it was 0.019 µM; at human orexin 2 receptor, 2.15 µM.
On to `O=C(c1cccc(F)c1-c1ncccn1)N1C[C@@H]2CC[C@H]1[C@H](Oc1cnc(C(F)(F)F)cn1)C2` [Example 74, (3-fluoro-2-(pyrimidin-2-yl)phenyl)((1S,4R,6R)-6-((5-(trifluoromethyl)pyrazin-2-yl)oxy)-2-azabicyclo[2.2.2]octan-2-yl)methanone], for which the Ki on rat orexin 1 receptor was 0.016 µM; on human orexin 1 receptor, 0.016 µM; on human orexin 2 receptor it was 1.8 µM.
Take `O=C(c1cccc(F)c1-c1ncccn1)N1C[C@H]2C[C@@H](Nc3nc4ccccc4o3)[C@@H]1C2` [Example 183, ((1S,4S,6R)-6-(benzo[d]oxazol-2-ylamino)-2-azabicyclo[2.2.1]heptan-2-yl)(3-fluoro-2-(pyrimidin-2-yl)phenyl)methanone]: the values for the Ki at rat orexin 1 receptor, at human orexin 1 receptor and at human orexin 2 receptor were 0.005 µM, 0.007 µM and 0.206 µM, respectively.
Taken in the same sequence, the figures for `O=C(c1cccc(F)c1-c1ncc(F)cn1)N1C[C@H]2C[C@@H](Oc3ccc(Cl)cn3)[C@@H]1C2` [Example 117, ((1S,4R,6R)-6-((5-chloropyridin-2-yl)oxy)-2-azabicyclo[2.2.1]heptan-2-yl)(3-fluoro-2-(5-fluoropyrimidin-2-yl)phenyl)methanone] were 0.016 µM, 0.028 µM and 1.6 µM.
For `O=C(c1cc(F)ccc1-n1nccn1)N1C[C@H]2C[C@@H](Oc3ccc(Br)cn3)[C@@H]1C2` [Example 108, ((1S,4R,6R)-6-((5-bromopyridin-2-yl)oxy)-2-azabicyclo[2.2.1]heptan-2-yl)(5-fluoro-2-(2H-1,2,3-triazol-2-yl)phenyl)methanone] the same measures were 0.008 µM, 0.031 µM and 0.776 µM.
Taken in the same sequence, the figures for `Cc1ccc(-c2ncccn2)c(C(=O)N2C[C@H]3C[C@@H](Nc4ccc(C(F)(F)F)nn4)[C@@H]2C3)n1` [Example 244, (6-methyl-3-(pyrimidin-2-yl)pyridin-2-yl)((1S,4S,6R)-6-((6-(trifluoromethyl)pyridazin-3-yl)amino)-2-azabicyclo[2.2.1]heptan-2-yl)methanone] were 0.114 µM, 0.143 µM and 1.7 µM.
With `O=C(c1cc(F)ccc1-c1ncccn1)N1C[C@@H]2CC[C@H]1[C@H](Oc1ccc(C(F)(F)F)cn1)C2` [Example 260, (5-fluoro-2-(pyrimidin-2-yl)phenyl)((1S,4R,6R)-6-((5-(trifluoromethyl)pyridin-2-yl)oxy)-2-azabicyclo[2.2.2]octan-2-yl)methanone], the inhibition constant (Ki) came to 0.011 µM at rat orexin 1 receptor, 0.01 µM on human orexin 1 receptor and 0.294 µM at human orexin 2 receptor.
For `Cc1ccc(-c2ncccn2)c(C(=O)N2C[C@H]3C[C@@H](Oc4ncc(Cl)cn4)[C@@H]2C3)n1` [Example 285, ((1S,4R,6R)-6-((5-chloropyrimidin-2-yl)oxy)-2-azabicyclo[2.2.1]heptan-2-yl)(6-methyl-3-(pyrimidin-2-yl)pyridin-2-yl)methanone] the same measures were 0.117 µM, 0.215 µM and 6 µM.
For `O=C(c1cccc(F)c1-c1ncccn1)N1C[C@H]2C[C@@H](Nc3ccc(C(F)(F)F)nn3)[C@@H]1C2` [Example 245, (3-fluoro-2-(pyrimidin-2-yl)phenyl)((1S,4S,6R)-6-((6-(trifluoromethyl)pyridazin-3-yl)amino)-2-azabicyclo[2.2.1]heptan-2-yl)methanone] the same measures were 0.065 µM, 0.053 µM and 4.3 µM.
For `O=C(c1ccccc1-c1ncc(F)cn1)N1C[C@@H]2CC[C@H]1[C@H](Oc1cnc(C(F)(F)F)cn1)C2` [Example 272, (2-(5-fluoropyrimidin-2-yl)phenyl)((1S,4R,6R)-6-((5-(trifluoromethyl)pyrazin-2-yl)oxy)-2-azabicyclo[2.2.2]octan-2-yl)methanone] the same measures were 0.023 µM, 0.011 µM and 1.4 µM.
Turning to `O=C(c1cc(F)ccc1-c1ncccn1)N1C[C@H]2C[C@@H](Nc3ncc(C(F)(F)F)cn3)[C@@H]1C2` [Example 228, (5-fluoro-2-(pyrimidin-2-yl)phenyl)((1S,4S,6R)-6-((5-(trifluoromethyl)pyrimidin-2-yl)amino)-2-azabicyclo[2.2.1]heptan-2-yl)methanone], the results for the inhibition constant (Ki) at rat orexin 1 receptor, at human orexin 1 receptor and on human orexin 2 receptor were 0.011 µM, 0.009 µM and 0.544 µM, respectively.
Taken in the same sequence, the figures for `O=C(c1cccc2cn[nH]c12)N1C[C@H]2C[C@@H](Nc3ccc(C(F)(F)F)cn3)[C@@H]1C2` [Example 186, (1H-indazol-7-yl)((1S,4S,6R)-6-((5-(trifluoromethyl)pyridin-2-yl)amino)-2-azabicyclo[2.2.1]heptan-2-yl)methanone] were 0.123 µM, 0.151 µM and 2.7 µM.
Taken in the same sequence, the figures for `Cc1ccc(-n2nccn2)c(C(=O)N2CC3CC(Oc4ncc(C(F)(F)F)cc4F)C2C3)n1` [Example 98, (1S,4R,6R)-6-((3-fluoro-5-(trifluoromethyl)pyridin-2-yl)oxy)-2-azabicyclo[2.2.1]heptan-2-yl)(6-methyl-3-(2H-1,2,3-triazol-2-yl)pyridin-2-yl)methanone] were 0.037 µM, 0.028 µM and 1.2 µM.
